# Tested on: LG0703-F948-PDC complex spheroid viability
# Experiment: Anticancer human tumor LG0703-F948-PDC patient-derived lung adenocarcinoma cell line growth inhibition [RAS]
# Conditions: for viability, T/C: stronger effect = lower value
# Text: RAS pathway inhibitors in Combinations in Complex Spheroids
# A high-throughput screen of multi-cell type tumor spheroids was designed to identify active combinations of RAS pathway inhibitors and targeted small molecules. Complex spheroids include a stromal component modeled by human endothelial cells (HUVEC) and fibroblasts modeled by human mesenchymal stem cells (MSCs). The concentration ranges selected for each drug and investigational agent were based upon clinically achievable concentrations if the clinical Cmax of the agent was known.
# Compounds. The drugs and investigational agents: abemaciclib (NSC768073), cobimetinib (NSC768068), divarasib (GDC6063, NSC841802), docetaxel (NSC628503), GDC-1971 (RLY-1971, NSC841576), gemcitabine (NSC613327), inavolisib (NSC800729), ipatasertib (NSC767898), KB-0742 (NSC834161), MRTX-1133 (NSC836407), osimertinib (NSC779217), RMC-4630 (NSC839698), RMC-6236 (NSC851965), RMC-6291 (NSC852671), Ro-3306 (NSC812927), sapanisertib (NSC764658), SN-38 (NSC673596), staurosporine (NSC755774), SY5609 (NSC837396), and tovorafenib (DAY101, NSC766906), were obtained from the National Cancer Institute (NCI) Developmental Therapeutics Program Chemical Repository. The FDA-approved anticancer drug set is available from the NCI Developmental Therapeutics Program. […] The stock solutions were prepared in dimethyl sulfoxide (DMSO, Sigma-Aldrich, St. Louis, MO, cat. D2650) at 800-fold the tested concentration and stored at -70 degrees C prior to their use. All drugs and investigational agents were tested over a range starting from a high concentration at or near the clinical Cmax and decreasing in half-log increments. If the clinical Cmax for an agent had not been determined, the highest concentration tested was 10 microM.
# Cell Culture. All cells were maintained in an incubator at 37 degrees C and 5% CO2 with 95% humidity. The PDC lines were cultured according to standard operating procedures established by the NCI PDMR. All PDCs were thawed and cultured in Matrigel-coated flasks prepared with a working solution of 1X Ham's F-12 nutrient mix, without supplementation (Invitrogen, Waltham, MA, cat. 11765054), 100 U/mL penicillin-streptomycin (Invitrogen, cat. 15140122), and 2.5% Matrigel (Corning Inc., Corning, NY, cat. 354248) for the first three passages. The 362531-283-R-J2-PDC and 782815-120-R-J1-PDC lines were cultured in 6C/Colon 1B media, which includes advanced DMEM/F-12 (Thermo Fisher Scientific, cat. 12634028), 10 mM HEPES (Thermo Fisher Scientific, cat. 15630080), 1X GlutaMAX supplement (Thermo Fisher Scientific, cat. 35050061), 0.1 mg/mL primocin (InvivoGen, San Diego, CA, cat. ant-pm-2), 10% defined fetal bovine serum, heat inactivated (HyClone Laboratories Inc., Logan, UT, cat. SH30070.03HI), 50% L-WRN conditioned media (ATCC, cat. CRL-3276), 1.25 mM N-Acetyl-L-cysteine (Sigma-Aldrich, cat. A9165), 10 mM nicotinamide (Sigma-Aldrich, cat. N0636), 1X B-27 supplement (Thermo Fisher Scientific, cat. 17504044), 1X N-2 supplement (Thermo Fisher Scientific, cat. 17502048), 50 ng/mL human EGF (Thermo Fisher Scientific, cat. PHG0311), and 10 microM Y-27632 dihydrochloride (Tocris Bioscience, cat. 1254). The K12877-001-R-J1-PDC line was cultured in 6I media, which includes all 6C/Colon 1B media plus 10 ng/mL human FGF-10 (PeproTech, cat. 100-26), 1 ng/mL human FGF-2 (PeproTech, cat. 100-18B), 1 µM prostaglandin E2 (Tocris Bioscience, cat. 2296), […] hydrocortisone (Sigma-Aldrich, cat. H4001), and […] bovine insulin (Sigma-Aldrich, cat. I6634). The K86415-001-R-J1-PDC line was cultured in 6D media, which includes all 6C/Colon 1B media components minus the L-WRN conditioned media. The 485176-168-R4-J1-PDC was cultured in PANC media, which includes all 6C/Colon 1B media plus 100 ng/mL human FGF-10 (PeproTech, cat. 100-26), 500 nM SB-431542 (Selleckchem, cat. S1067), and 10 nM gastrin (Tocris Bioscience, cat. 3006). […]
# 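Also: spheroids exposed to agents for 7 days.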
# 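For viability, T/C in this document: 100% = DMSO vehicle wells.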
compound,measurement,setting,value
CCC(CC)c1cc(NC2CCC(N)C2)n2nccc2n1 (stereo not given) + C#Cc1c(F)ccc2cc(O)cc(-c3ncc4c(N5CC6CCC(C5)N6)nc(OCC56CCCN5CC(F)C6)nc4c3F)c12,IC50,"curve of first compound, second compound 0.0316 µM",1150 nM
same,IC50,"curve of first compound, second compound 0.1 µM",1120 nM
same,IC50,"curve of first compound, second compound 0.316 µM",1350 nM
same,IC50,"curve of first compound, second compound 1 µM",936 nM
same,IC50,"curve of first compound, second compound 3.16 µM",456 nM
same,IC50,"curve of first compound, second compound 10 µM",35.1 nM
same,"viability, T/C","second compound 0.0316 µM, first compound 0.0316 µM",95%
same,"viability, T/C","second compound 0.0316 µM, first compound 0.1 µM",80.1%
same,"viability, T/C","second compound 0.0316 µM, first compound 0.316 µM",83.9%
same,"viability, T/C","second compound 0.0316 µM, first compound 1 µM",56.7%
same,"viability, T/C","second compound 0.0316 µM, first compound 3.16 µM",2.63%
same,"viability, T/C","second compound 0.0316 µM, first compound 10 µM",0.05%
same,"viability, T/C","second compound 0.1 µM, first compound 0.0316 µM",97.5%
same,"viability, T/C","second compound 0.1 µM, first compound 0.1 µM",80.8%
same,"viability, T/C","second compound 0.1 µM, first compound 0.316 µM",87.7%
same,"viability, T/C","second compound 0.1 µM, first compound 1 µM",55.1%
same,"viability, T/C","second compound 0.1 µM, first compound 3.16 µM",2.53%
same,"viability, T/C","second compound 0.1 µM, first compound 10 µM",0.22%
same,"viability, T/C","second compound 0.316 µM, first compound 0.0316 µM",81.2%
same,"viability, T/C","second compound 0.316 µM, first compound 0.1 µM",68%
same,"viability, T/C","second compound 0.316 µM, first compound 0.316 µM",73.4%
same,"viability, T/C","second compound 0.316 µM, first compound 1 µM",66.5%
same,"viability, T/C","second compound 0.316 µM, first compound 3.16 µM",3.15%
same,"viability, T/C","second compound 0.316 µM, first compound 10 µM",0.1%
same,"viability, T/C","second compound 1 µM, first compound 0.0316 µM",73.4%
same,"viability, T/C","second compound 1 µM, first compound 0.1 µM",69.8%
same,"viability, T/C","second compound 1 µM, first compound 0.316 µM",65.1%
same,"viability, T/C","second compound 1 µM, first compound 1 µM",49.3%
same,"viability, T/C","second compound 1 µM, first compound 3.16 µM",2.65%
same,"viability, T/C","second compound 1 µM, first compound 10 µM",0.06%
same,"viability, T/C","second compound 3.16 µM, first compound 0.0316 µM",64%
same,"viability, T/C","second compound 3.16 µM, first compound 0.1 µM",55.3%
same,"viability, T/C","second compound 3.16 µM, first compound 0.316 µM",56.7%
same,"viability, T/C","second compound 3.16 µM, first compound 1 µM",33.8%
same,"viability, T/C","second compound 3.16 µM, first compound 3.16 µM",1.79%
same,"viability, T/C","second compound 3.16 µM, first compound 10 µM",0.56%
same,"viability, T/C","second compound 10 µM, first compound 0.0316 µM",45%
same,"viability, T/C","second compound 10 µM, first compound 0.1 µM",56%
same,"viability, T/C","second compound 10 µM, first compound 0.316 µM",31.7%
same,"viability, T/C","second compound 10 µM, first compound 1 µM",19%
same,"viability, T/C","second compound 10 µM, first compound 3.16 µM",0.77%
same,"viability, T/C","second compound 10 µM, first compound 10 µM",0.53%
Cc1nc(N2CCC3(CC2)COC(C)C3N)c(CO)nc1Sc1ccnc(N)c1Cl (stereo not given) + CCn1c(-c2cc(N3CCN(C)CC3)cnc2C(C)OC)c2c3cc(ccc31)-c1csc(n1)CC(NC(=O)C1CC1C)C(=O)N1CCCC(N1)C(=O)OCC(C)(C)C2,IC50,"curve of first compound, second compound 0.000949 µM",93 nM
same,IC50,"curve of first compound, second compound 0.003 µM",< 31.6 nM
same,IC50,"curve of first compound, second compound 0.00949 µM",< 31.6 nM
same,IC50,"curve of first compound, second compound 0.03 µM",< 31.6 nM
same,IC50,"curve of first compound, second compound 0.0949 µM",< 31.6 nM
same,IC50,"curve of first compound, second compound 0.3 µM",< 31.6 nM
same,"viability, T/C","second compound 0.000949 µM, first compound 0.0316 µM",68%
same,"viability, T/C","second compound 0.000949 µM, first compound 0.1 µM",48%
same,"viability, T/C","second compound 0.000949 µM, first compound 0.316 µM",32.7%
same,"viability, T/C","second compound 0.000949 µM, first compound 1 µM",18.2%
same,"viability, T/C","second compound 0.000949 µM, first compound 3.16 µM",11.3%
same,"viability, T/C","second compound 0.000949 µM, first compound 10 µM",8.65%
same,"viability, T/C","second compound 0.003 µM, first compound 0.0316 µM",32.3%
same,"viability, T/C","second compound 0.003 µM, first compound 0.1 µM",23.9%
same,"viability, T/C","second compound 0.003 µM, first compound 0.316 µM",21.1%
same,"viability, T/C","second compound 0.003 µM, first compound 1 µM",14.9%
same,"viability, T/C","second compound 0.003 µM, first compound 3.16 µM",6.78%
same,"viability, T/C","second compound 0.003 µM, first compound 10 µM",5.16%
same,"viability, T/C","second compound 0.00949 µM, first compound 0.0316 µM",26%
same,"viability, T/C","second compound 0.00949 µM, first compound 0.1 µM",15.7%
same,"viability, T/C","second compound 0.00949 µM, first compound 0.316 µM",10.6%
same,"viability, T/C","second compound 0.00949 µM, first compound 1 µM",10.2%
same,"viability, T/C","second compound 0.00949 µM, first compound 3.16 µM",6.57%
same,"viability, T/C","second compound 0.00949 µM, first compound 10 µM",7.31%
same,"viability, T/C","second compound 0.03 µM, first compound 0.0316 µM",13.2%
same,"viability, T/C","second compound 0.03 µM, first compound 0.1 µM",11.6%
same,"viability, T/C","second compound 0.03 µM, first compound 0.316 µM",8.59%
same,"viability, T/C","second compound 0.03 µM, first compound 1 µM",4.72%
same,"viability, T/C","second compound 0.03 µM, first compound 3.16 µM",7.7%
same,"viability, T/C","second compound 0.03 µM, first compound 10 µM",5.42%
same,"viability, T/C","second compound 0.0949 µM, first compound 0.0316 µM",10.1%
same,"viability, T/C","second compound 0.0949 µM, first compound 0.1 µM",7.94%
same,"viability, T/C","second compound 0.0949 µM, first compound 0.316 µM",6.73%
same,"viability, T/C","second compound 0.0949 µM, first compound 1 µM",6.62%
same,"viability, T/C","second compound 0.0949 µM, first compound 3.16 µM",6.38%
same,"viability, T/C","second compound 0.0949 µM, first compound 10 µM",3.71%
same,"viability, T/C","second compound 0.3 µM, first compound 0.0316 µM",7.15%
same,"viability, T/C","second compound 0.3 µM, first compound 0.1 µM",6.24%
same,"viability, T/C","second compound 0.3 µM, first compound 0.316 µM",5.96%
same,"viability, T/C","second compound 0.3 µM, first compound 1 µM",3.97%
same,"viability, T/C","second compound 0.3 µM, first compound 3.16 µM",3.82%
same,"viability, T/C","second compound 0.3 µM, first compound 10 µM",4.35%
CCn1c(-c2cc(N3CCN(C)CC3)cnc2C(C)OC)c2c3cc(ccc31)-c1csc(n1)CC(NC(=O)C1CC1C)C(=O)N1CCCC(N1)C(=O)OCC(C)(C)C2 (stereo not given),"viability, T/C",compound 0.003 µM,46.6% [middle of 8 runs]
same,"viability, T/C",compound 0.00949 µM,25.5% [middle of 8 runs]
same,"viability, T/C",compound 0.03 µM,14% [middle of 8 runs]
same,"viability, T/C",compound 0.0949 µM,11.6% [middle of 8 runs]
same,"viability, T/C",compound 0.3 µM,12.3% [middle of 8 runs]
same,IC50,"compound alone, run of 08/26/2024",2.7 nM [middle of 8 runs]

# — PubChem BioAssay AID2060890 (Molecular Pharmacology Branch, DTP, NCI, 2025)
